This note sets out measurements from PubChem BioAssay (NCI).

Each structure is given as a SMILES string.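 These data come from cells grown in 96-well plates and exposed to compound for 48 hours at five concentrations. GI50 marks 50% less growth. At the TGI there is no net growth.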 A value given as a limit tells only on which side of the number the result lay.

Holding throughout (test): DTP human tumour cell line panel, 48 h
Experiment [1] deals with MALME-3M melanoma.
The subject of experiment [2] is NCI-H226 lung.
For experiment [3], the system named is SF-295 CNS.
The test system of experiment [4] is NCI-H460 lung.
Experiment [5] has as its system SF-539 CNS.
The subject of experiment [6] is NCI-H522 lung.
The subject of experiment [7] is OVCAR-8 ovarian.
Experiment [8] relates to HCT-116 colon.
Experiment [9] concerns MCF7 breast.
Experiment [10] relates to BT-549 breast.

One may read the TGI as the concentration at which net growth stops. High values mean less potent growth arrest, low ones more potent growth arrest. For orientation: GI50 means the concentration that inhibits growth by half.

Turning to `CC1=C(C)C(=O)c2c(cc3c4ccccc4ccn23)C1=O`, the TGI in experiment [1], in [2], in experiment [3], in experiment [4], in experiment [5] and in [6] was above 100 µM each time. This compound also came in with a TGI in [7] above 100 µM.
As to `CC(=O)c1cc2c3c(c1)c1cc4c(cc1c(=O)n3CC2)OCO4`, the concentration for total growth inhibition (TGI) in experiment [1] is above 100 µM; in experiment [2], above 100 µM; in experiment [3], above 100 µM; in [8] it was 26.6 µM; in experiment [4], 49.7 µM; in experiment [5], above 100 µM. Also, the TGI was 34 µM in [6] and above 100 µM in experiment [7].
On to `C[CH2][Sn]1([CH2]C)[O]C2C(O)OC(CO)C(O)C2[O]1` (stereo not given), for which the GI50 is 14 µM in experiment [1]; 13.2 µM in [2]; above 100 µM in [3]; 77.7 µM in experiment [8]; above 100 µM in experiment [4]; 25.4 µM in experiment [9]. The GI50 in [5] was 17.3 µM; in experiment [6] it was 3.95 µM; in [7], above 100 µM. In addition, the TGI was 30.2 µM in [1]; 26.1 µM in experiment [2]; above 100 µM in [3]; above 100 µM in experiment [8]; above 100 µM in [4]; 79.5 µM in experiment [9]. The TGI is 32.5 µM in experiment [5], 22.2 µM in [6] and above 100 µM in experiment [7].
On to `CCOC(=O)CC(=O)N(c1ccc(OC)cc1)C(C(=O)OC)c1ccccc1` (stereo not given), for which the TGI in experiment [3], in experiment [8], in [4], in experiment [9], in experiment [5] and in experiment [6] was above 100 µM throughout. This compound returned a TGI in experiment [7] above 100 µM.
As for `COc1ccc(C2Cc3cc(OC)c(OC)c(OC)c3C2=O)cc1` (stereo not given), the TGI in experiment [1], in experiment [2], in experiment [3], in experiment [8], in experiment [4] and in [5] was above 100 µM throughout. Moreover, the TGI in [7] was above 100 µM.
As to `COC(=O)C1C2CC3C(OC(=O)C31)C2I` (stereo not given), the total growth inhibition concentration (TGI) in experiment [1], in experiment [2], in [3], in experiment [8], in experiment [4] and in experiment [5] was above 100 µM in each case. In addition, the TGI in experiment [6] and in experiment [7] was above 100 µM throughout.
Consider `C=CCOC1=C2CC[C@H](O)[C@@]2(C)CCC1=O`, for which the TGI in [1], in [2], in experiment [3], in [8], in [4] and in [5] was above 100 µM in each case. Further, the TGI in [6] and in experiment [7] was above 100 µM throughout.
Consider `CCC1(O)C(=O)OCc2c1cc1n(c2=O)Cc2c-1nc1ccccc1c2OC` (stereo not given), for which the TGI worked out at 25.3 µM in [1]; 0.12 µM in experiment [2]; 11.3 µM in [3]; 1.21 µM in experiment [8]; 0.0414 µM in [5]; 0.984 µM in experiment [6]. The compound further returned a total growth inhibition concentration (TGI) in experiment [7] above 100 µM.
As for `CCOC(=O)/C(=C/c1cc(OC)ccc1OC)CC(=O)O`, the total growth inhibition concentration (TGI) in experiment [1] is above 31.6 µM; in experiment [3] it was above 100 µM; in [8], above 100 µM; in experiment [4], above 100 µM; in experiment [5], above 100 µM; in experiment [6], above 100 µM. Also, the TGI in experiment [7] is above 100 µM.
As for `CC(=O)NC(ON1C(=O)COc2ccccc21)C(Cl)(Cl)Cl` (stereo not given), the TGI in experiment [1] was above 100 µM; in experiment [2], 88.1 µM; in [3], above 100 µM; in experiment [8], above 100 µM; in experiment [4] it was above 100 µM; in [5], above 100 µM. Besides, the TGI in experiment [6] and in [7] was above 100 µM in each case.
Consider `COc1cc(-c2nn(C)nc2-c2cc3ccccc3s2)cc(OC)c1OC`, for which the GI50 was 16.9 µM in experiment [1]; above 100 µM in experiment [2]; 0.036 µM in experiment [3]; 0.0738 µM in experiment [8]; 0.0699 µM in [4]; 0.0403 µM in [9]. The GI50 in [5] is 0.149 µM; in [6], 0.0232 µM; in experiment [7] it was 0.352 µM. The TGI in experiment [1] is above 100 µM; in experiment [2], above 100 µM; in experiment [3], 15.3 µM; in [8], above 100 µM; in experiment [4], above 100 µM; in [9], above 100 µM. The TGI in [5] is 0.903 µM; in [6], 0.0787 µM; in [7], above 100 µM.
For `N#Cc1cc(-c2ccccc2)[nH]c1-c1nccc2ccccc12`, the GI50 in experiment [1] is 13 µM; in experiment [3], 7.07 µM; in experiment [8], 9.13 µM; in experiment [4], 18.1 µM; in experiment [9], 5.76 µM; in [5], 32.7 µM. Further, the GI50 is 10.1 µM in [10], 12.4 µM in experiment [6] and 22.7 µM in experiment [7]. Also, the TGI in [1] was 84.5 µM; in experiment [3], above 100 µM; in experiment [8], above 100 µM; in [4], above 100 µM; in [9], above 100 µM; in [5], above 100 µM. Besides, the values for the TGI in experiment [10], in experiment [6] and in experiment [7] were above 100 µM, 98 µM and above 100 µM, respectively.
With `NC1=NN(c2ccccc2)C(=O)C1C(=O)C(=O)NC1C2CC3CC(C2)CC1C3` (stereo not given), the TGI in experiment [1], in [2], in [3], in experiment [8], in experiment [4] and in experiment [5] was above 100 µM throughout. This compound showed a TGI in experiment [7] above 100 µM.
As for `Cc1ccc(NC(=O)C2C(=O)C(=O)N(c3ccc(C)cc3)C2=O)cc1` (stereo not given), the concentration for total growth inhibition (TGI) in [1], in experiment [3], in experiment [8], in [4], in experiment [5] and in experiment [6] was above 100 µM each time. This compound registered a TGI in experiment [7] above 100 µM.
